We go through 28 molecules from US6593480B2 (Abbott Laboratories, priority 1999, dated 2003).

One assay has as its target T1, progesterone receptor (PR) (Homo sapiens, UniProt P06401).
T1 sequence (P06401 1-933): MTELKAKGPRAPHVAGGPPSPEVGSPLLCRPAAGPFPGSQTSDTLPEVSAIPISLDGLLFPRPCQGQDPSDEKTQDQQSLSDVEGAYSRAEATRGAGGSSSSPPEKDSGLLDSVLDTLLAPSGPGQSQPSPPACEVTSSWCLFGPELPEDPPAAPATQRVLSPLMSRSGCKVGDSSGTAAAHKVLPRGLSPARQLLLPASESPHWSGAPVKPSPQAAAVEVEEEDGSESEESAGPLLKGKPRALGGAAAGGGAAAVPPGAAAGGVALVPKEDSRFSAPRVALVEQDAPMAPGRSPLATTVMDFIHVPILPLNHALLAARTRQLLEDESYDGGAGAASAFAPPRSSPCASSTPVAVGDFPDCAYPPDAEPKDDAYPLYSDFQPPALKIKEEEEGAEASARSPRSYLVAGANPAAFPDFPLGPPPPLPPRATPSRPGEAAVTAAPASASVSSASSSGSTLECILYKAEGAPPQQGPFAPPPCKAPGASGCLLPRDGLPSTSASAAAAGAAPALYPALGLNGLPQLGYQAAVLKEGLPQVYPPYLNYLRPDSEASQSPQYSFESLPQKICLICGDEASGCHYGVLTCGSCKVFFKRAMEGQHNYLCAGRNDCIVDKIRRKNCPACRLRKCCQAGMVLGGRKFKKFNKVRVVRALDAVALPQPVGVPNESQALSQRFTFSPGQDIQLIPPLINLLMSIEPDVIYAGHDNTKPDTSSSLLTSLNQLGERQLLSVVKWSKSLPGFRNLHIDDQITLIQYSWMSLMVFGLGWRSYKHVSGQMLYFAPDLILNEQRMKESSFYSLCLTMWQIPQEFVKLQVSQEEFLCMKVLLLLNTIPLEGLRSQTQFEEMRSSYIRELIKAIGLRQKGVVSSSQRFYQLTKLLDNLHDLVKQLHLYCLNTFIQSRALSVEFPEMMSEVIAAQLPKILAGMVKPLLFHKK
The assay can be described thus: Radioligand binding assay with progesterone receptor cytosol (similar protocol).
Details: not given
The text has this: Methods for Radioligand Binding Studies with Human Glucocorticoid and Progesterone Receptor Cytosol
A similar protocol was employed to measure affinity of the compounds of the present invention for progesterone receptor (PR).
Consider `COc1cccc2c1-c1ccc(NS(C)(=O)=O)cc1C(c1cccc(Br)c1)O2` (stereo not shown) [Example 82, N-[6-(3-bromophenyl)-1-methoxy-6H-benzo[c]chromen-8-yl]methanesulfonamide], for which the IC50 (commonly the midpoint of a concentration-inhibition curve) turned out to be 300 nM.

Regarding `COc1cccc(-c2cccc(C3Oc4cccc(OC)c4-c4ccc(NS(C)(=O)=O)cc43)c2)c1` (stereo not shown) [Example 124, N-[1-methoxy-6-(3′-methoxyl[1,1′-biphenyl]-3-yl)-6H-benzo[c]chromen-8-yl]methanesulfonamide], the IC50 was more than 10000 nM.

The molecule `COc1ccc(-c2cccc(C3Oc4cccc(OC)c4-c4ccc(NS(C)(=O)=O)cc43)c2)cc1` (stereo not shown) [Example 125, N-[1-methoxy-6-(4′-methoxy[1,1′-biphenyl]-3-yl)-6H-benzo[c]chromen-8-yl]methanesulfonamide] registered a 50% inhibitory concentration (IC50) of more than 10000 nM.

Take `C=CCN(C)c1cccc(C2Oc3cccc(OC)c3-c3ccc(NS(C)(=O)=O)cc32)c1` (stereo not shown) [Example 80, N-(6-{3-[allyl(methyl)amino]phenyl}-1-methoxy-6H-benzo[c]chromen-8-yl)methanesulfonamide]: the IC50 was 620 nM.

As for `CS(=O)(=O)Nc1ccc2c(c1)C(c1ccc(Br)s1)Oc1cccc(OC(F)F)c1-2` (stereo not shown) [Example 96, N-{6-(5-bromo-2-thienyl)-1-(difluoromethoxy)-6H-benzo[c]chromen-8-yl}methanesulfonamide], the IC50 turned out to be 120 nM.

`Cc1ccc(-c2cccc(C3Oc4cccc(OC(F)F)c4-c4ccc(NS(C)(=O)=O)cc43)c2)cc1` (stereo not shown) [Example 147, N-[1-(difluoromethoxy)-6-(4′-methyl[1,1′-biphenyl]-3-yl)-6H-benzo[c]chromen-8-yl]methanesulfonamide] had an IC50 of 530 nM. This IC50 is about 4.4-fold higher than that of the molecule before.

Molecule `CS(=O)(=O)Nc1ccc2c(c1)C(c1cccc(CCCCCCC#N)c1)Oc1cccc(OC(F)F)c1-2` (stereo not shown) [Example 137, N-[6-[3-(6-cyanohexyl)phenyl]-1-(difluoromethoxy)-6H-benzo[c]chromen-8-yl]methanesulfonamide] had a half-inhibitory concentration (IC50) of more than 10000 nM.

As to `COc1cccc2c1-c1ccc(NS(C)(=O)=O)cc1C(c1cccc(-c3ccc(N(C)C)cc3)c1)O2` (stereo not shown) [Example 133, N-{6-[4′-(dimethylamino)[1,1′-biphenyl]-3-yl]-1-methoxy-6H-benzo[c]chromen-8-yl}methanesulfonamide], the half-maximal inhibitory concentration (IC50) was more than 10000 nM.

For the molecule `COc1cccc2c1-c1ccc(NS(C)(=O)=O)cc1C(c1ccc(-c3ccccc3)s1)O2` (stereo not shown) [Example 100, N-[1-methoxy-6-(5-phenyl-2-thienyl)-6H-benzo[c]chromen-8-yl]methanesulfonamide], the half-inhibitory concentration (IC50) came to 250 nM.

As for `C=CCOc1cccc(C2Oc3cccc(OC(F)F)c3-c3ccc(NS(C)(=O)=O)cc32)c1` (stereo not shown) [Example 116, N-[6-[3-(allyloxy)phenyl]-1-(difluoromethoxy)-6H-benzo[c]chromen-8-yl]methanesulfonamide], the IC50 stood at 1050 nM.

On to `CNc1cccc(C2Oc3cccc(OC)c3-c3ccc(NS(C)(=O)=O)cc32)c1` (stereo not shown) [Example 81, N-{1-methoxy-6-[3-(methylamino)phenyl]-6H-benzo[c]chromen-8-yl}methanesulfonamide], for which the IC50 was determined as 9360 nM.

`COc1cccc2c1-c1ccc(NS(=O)(=O)c3ccccc3F)cc1C(c1ccccc1)O2` (stereo not shown) [Example 18] gave an IC50 of more than 10000 nM.

In the case of `CCOC(=O)CCCCCc1cccc(C2Oc3cccc(OC(F)F)c3-c3ccc(NS(C)(=O)=O)cc32)c1` (stereo not shown) [Example 119, ethel 6-(3-{1-(difluoromethoxy)-8-[(methylsulfonyl)amino]-6H-benzo[c]chromen-6-yl}phenyl)hexanoate], the IC50 came out at 1960 nM.

As for `CS(=O)(=O)Nc1ccc2c(c1)C(c1ccc(Br)cc1)Oc1cccc(OC(F)F)c1-2` (stereo not shown) [Example 109, N-[6-(4-bromophenyl)-1-(difluoromethoxy)-6H-benzo[c]chromen-8-yl]methanesulfonamide], the IC50 came to 250 nM.

In turn, `CS(=O)(=O)Nc1ccc2c(c1)C(c1cccc(Br)c1)Oc1cccc(OC(F)F)c1-2` (stereo not shown) [Example 103, N-[6-(3-bromophenyl)-1-(difluoromethoxy)-6H-benzo[c]chromen-8-yl]methanesulfonamide] gave an IC50 of 180 nM. This IC50 and that of the molecule before are within 1.5-fold of each other.

As for `C=CCOc1ccc(C2Oc3cccc(OC)c3-c3ccc(NS(C)(=O)=O)cc32)cc1` (stereo not shown) [Example 32, (1methoxy-6-(4-allyloxy)phenyl-6H-dibenzo(b,d)pyran-8-yl)-methanesulfonamide], the IC50 is more than 10000 nM.

With `COc1cccc2c1-c1ccc(NS(C)(=O)=O)cc1C(c1cccc(N(C)S(=O)(=O)c3ccccc3)c1)O2` (stereo not shown) [Example 129, N(3-{1-methoxy-8-[(methylsulfonyl)amino]-6H-benzo[c]chromen-6-yl}phenyl)-N-methylbenzenesulfonamide], the IC50 is more than 10000 nM.

Turning to `COc1ccc(Br)c2c1-c1ccc(NS(C)(=O)=O)cc1C(c1ccccc1)O2` (stereo not shown) [Example 154, N-(4-bromo-1-methoxy-6-phenyl-6H-benzo[c]chromen-8-yl)methanesulfonamide], the 50% inhibitory concentration (IC50) is 680 nM.

On to `COc1cccc2c1-c1ccc(NS(C)(=O)=O)cc1C(c1cccc(/C=C/c3ccccc3)c1)O2` (stereo not shown) [Example 99, N-(1-methoxy-6-{3-[(E)-2-phenylethenyl]phenyl}-6H-benzo[c]chromen-8-yl)methanesulfonamide], for which the concentration for half-maximal inhibition (IC50) was more than 1000 nM.

On to `COc1cccc2c1-c1ccc(NS(C)(=O)=O)cc1C(c1cccc(-c3ccc(Cl)cc3)c1)O2` (stereo not shown) [Example 126, N-[6-(4′-chloro[1,1′-biphenyl]-3-yl)-1-methoxy-6H-benzo[c]chromen-8-yl]methanesulfonamide], for which the IC50 was more than 10000 nM.

Consider `COc1ccc(-c2cccc(C3Oc4cccc(OC(F)F)c4-c4ccc(NS(C)(=O)=O)cc43)c2)cc1` (stereo not shown) [Example 145, N-[1-(difluoromethoxy)-6-(4′-methoxy[1,1′-biphenyl]-3-yl)-6H-benzo[c]chromen-8-yl]methanesulfonamide], for which the IC50 came out at 390 nM. That is a sub-micromolar value.

For the next assay, the target named is T2, Human glucocorticoid receptors (Homo sapiens, UniProt P04150).
T2 construct: made in house; host or cells: Sf9 insect cells, recombinant baculovirus (BAC-TO-BAC)
T2 sequence (P04150 1-777): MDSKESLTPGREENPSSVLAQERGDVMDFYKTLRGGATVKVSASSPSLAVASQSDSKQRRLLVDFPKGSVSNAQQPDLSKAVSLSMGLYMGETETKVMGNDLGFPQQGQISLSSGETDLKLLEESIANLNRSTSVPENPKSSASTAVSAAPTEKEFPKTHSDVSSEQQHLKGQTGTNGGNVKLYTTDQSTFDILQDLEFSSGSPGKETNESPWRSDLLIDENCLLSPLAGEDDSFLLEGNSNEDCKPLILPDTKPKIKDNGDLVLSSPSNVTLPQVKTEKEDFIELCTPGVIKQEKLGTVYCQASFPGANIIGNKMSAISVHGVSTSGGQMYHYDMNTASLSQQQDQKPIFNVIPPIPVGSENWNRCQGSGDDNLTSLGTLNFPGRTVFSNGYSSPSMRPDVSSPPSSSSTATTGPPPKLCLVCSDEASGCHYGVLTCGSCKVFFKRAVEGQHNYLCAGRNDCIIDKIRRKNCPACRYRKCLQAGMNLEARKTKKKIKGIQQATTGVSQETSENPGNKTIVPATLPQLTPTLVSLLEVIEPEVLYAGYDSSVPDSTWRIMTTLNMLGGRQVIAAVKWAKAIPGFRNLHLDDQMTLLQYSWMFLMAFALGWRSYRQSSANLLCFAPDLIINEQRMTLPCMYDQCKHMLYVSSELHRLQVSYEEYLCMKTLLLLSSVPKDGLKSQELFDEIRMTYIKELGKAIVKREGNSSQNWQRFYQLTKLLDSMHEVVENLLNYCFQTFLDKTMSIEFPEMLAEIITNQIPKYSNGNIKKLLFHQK
The assay can be described thus: Radioligand filter binding assay, displacement of 3(H)-dexamethasone from human glucocorticoid receptor cytosol. As to conditions: 1.7 μM test compound; inhibition of 3(H)-dex binding to hGR.
With `CCC(=O)Nc1ccc2c(c1)C(c1ccccc1)Oc1cccc(OC)c1-2` (stereo not shown) [Example 13, (1-methoxy-6-phenyl-6H-dibenzo(b,d)pyran-8-yl)propionamide], the “GR BINDING (% Inhibition @ 1.7 μM)” value is recorded as 85.4%.

Consider `COc1cccc2c1-c1ccc(NC(=O)C3CC3)cc1C(c1ccccc1)O2` (stereo not shown) [Example 16, (1-methoxy-6-phenyl-6H-dibenzo(b,d)pyran-8-yl)cyclopropanecarboxamide], for which the “GR BINDING (% Inhibition @ 1.7 μM)” value is on record as 74.3%.

As to `COc1cccc2c1-c1ccc(NS(C)(=O)=O)cc1C(c1cccc(O)c1)O2` (stereo not shown) [Example 34, (1-methoxy-6-(3-hydroxy)phenyl-6H-dibenzo(b,d)pyran-8-yl)-methanesulfonamide], the “GR BINDING (% Inhibition @ 1.7 μM)” value is 81.6%.

Staying with this assay, now noted: 1.7 μM test compound; inhibition of 3(H)-dex binding to hGR; read-out: GR BINDING (% Inhibition @ 1.7 μM).
`CC#Cc1cccc2c1-c1ccc(NS(C)(=O)=O)cc1C(c1ccccc1)O2` (racemic) [Example 39]: the inhibition – broadly, the change of the read-out against control, counted positive when it falls – at 1.7 µM came to 90.6%.

With `COc1cccc2c1-c1ccc(NS(C)(=O)=O)cc1C(Cc1cccc(C#N)c1)O2` (stereo not shown) [Example 49], the inhibition at 1.7 µM stood at 75.1%.

With `C=CCc1cccc2c1-c1ccc(NS(C)(=O)=O)cc1C(c1ccccc1)O2` (racemic) [Example 41], the inhibition at 1.7 µM is 88.7%.

Take `CS(=O)(=O)Nc1ccc2c(c1)C(c1ccccc1)Oc1cccc(-c3ccco3)c1-2` (racemic) [Example 40]: the inhibition at 1.7 µM came to 69.3%.
